Data on 12 molecules can be found in ChEMBL document CHEMBL4680243, “N-benzyl 4,4-disubstituted piperidines as a potent class of influenza H1N1 virus inhibitors showing a novel mechanism of hemagglutinin fusion peptide interaction” (Eur J Med Chem, 2020).

The EC50 is the concentration at which the effect is half-maximal. As a reminder, the CC50 is the concentration at which the toxic effect on the cells reaches its halfway point. Usually inhibition stands for the change of the read-out against control, counted positive when it falls.

Active and inactive are the calls of the source. The calls are words filed in the database; no cut-off is given here. Bounds are passed on as bounds.

Series [1] concerns Influenza A virus. As to the kind of experiment: Antiviral activity against Influenza A virus (A/PR 8/34 (H1N1)) infected in MDCK cells assessed as reduction in virus-induced cytopathic effect measured after 72 hrs by microscopic analysis. Type of series: functional, organism-based. The settings on record: A/Puerto Rico/8/1934(H1N1). (Cytopathic effects are the visible damage that an infection or toxin causes in cultured cells.)

The subject of series [2] is Influenza A virus. As to the kind of experiment: Antiviral activity against Influenza A virus (A/PR 8/34 (H1N1)) infected in MDCK cells assessed as reduction in virus-induced cytopathic effect measured after 72 hrs by MTS assay. Type of series: functional, organism-based. The following applies: A/Puerto Rico/8/1934(H1N1).
Series [3] is described as follows: Cytotoxicity against MDCK cells assessed as change in cell morphology measured after 72 hrs by microscopic analysis. Type of series: cell-based, Canis lupus familiaris. The following applies: dog.
Series [4] in a line: Cytotoxicity against MDCK cells assessed as reduction in cell viability measured after 72 hrs by MTS assay. The series is classed as cell-based, Canis lupus familiaris. The settings on record: dog. Background: Tetrazolium assays rely on reduction of a dye to a coloured formazan, in cell work by metabolically active cells.
Series [5] has as its target T1, Trypsin (Homo sapiens) (UniProt P07477+P07478+P35030). The experiment in a line: Inhibition of human trypsin using Boc-Gln-Ala-Arg-AMC as substrate preincubated for 15 mins followed by substrate addition and measured for 60 mins by fluorescence assay. The series is classed as protein assay. The settings on record: time 75.0 min.
For series [6], the target named is T2, Transmembrane protease serine 11D (Homo sapiens) (UniProt O60235).
T2 sequence (whole entry): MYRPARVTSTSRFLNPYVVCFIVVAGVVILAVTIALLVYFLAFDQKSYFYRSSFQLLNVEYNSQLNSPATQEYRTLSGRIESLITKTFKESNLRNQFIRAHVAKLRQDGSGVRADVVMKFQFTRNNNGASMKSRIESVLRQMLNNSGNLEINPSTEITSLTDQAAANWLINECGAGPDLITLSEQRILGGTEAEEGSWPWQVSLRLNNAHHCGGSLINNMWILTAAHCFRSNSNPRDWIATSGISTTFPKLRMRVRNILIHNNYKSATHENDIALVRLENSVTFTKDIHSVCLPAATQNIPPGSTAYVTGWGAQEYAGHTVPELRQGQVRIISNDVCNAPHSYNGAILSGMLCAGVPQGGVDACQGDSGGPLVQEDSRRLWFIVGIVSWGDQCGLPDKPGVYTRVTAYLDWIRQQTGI
As to the kind of experiment: Inhibition of recombinant human N-terminal His-tagged HAT (Ala42 to Ile418 residues) expressed in mouse NSO cells using Boc-Gln-Ala-Arg-AMC as substrate preincubated for 15 mins followed by substrate addition and measured for 60 mins by fluorescence assay. The following applies: time 75.0 min.

The target in series [7] is Cathepsin B (Homo sapiens) (UniProt P07858). The experiment in a line: Inhibition of human liver cathepsin B using Z-Phe-Arg-AMC as substrate preincubated for 15 mins followed by substrate addition and measured for 60 mins by fluorescence assay. The settings on record: time 75.0 min.
Series [8] has as its target T3, Cathepsin F (Homo sapiens) (UniProt Q9UBX1).
T3 sequence (whole entry): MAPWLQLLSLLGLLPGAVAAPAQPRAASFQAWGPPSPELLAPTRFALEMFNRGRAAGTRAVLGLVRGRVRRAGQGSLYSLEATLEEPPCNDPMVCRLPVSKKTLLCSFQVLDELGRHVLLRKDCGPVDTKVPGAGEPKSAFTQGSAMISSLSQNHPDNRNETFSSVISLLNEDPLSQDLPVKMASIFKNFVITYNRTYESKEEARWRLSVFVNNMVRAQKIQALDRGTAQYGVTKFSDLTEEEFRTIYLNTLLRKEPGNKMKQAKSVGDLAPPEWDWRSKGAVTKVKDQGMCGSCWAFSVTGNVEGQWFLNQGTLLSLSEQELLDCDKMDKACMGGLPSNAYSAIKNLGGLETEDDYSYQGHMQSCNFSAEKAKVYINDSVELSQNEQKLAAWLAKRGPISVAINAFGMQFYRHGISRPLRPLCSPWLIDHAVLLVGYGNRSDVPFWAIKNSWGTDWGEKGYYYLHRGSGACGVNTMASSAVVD
As to the kind of experiment: Inhibition of recombinant human cathepsin F expressed in baculovirus infected insect cells using Z-Phe-Arg-AMC as substrate preincubated for 15 mins followed by substrate addition and measured for 60 mins by fluorescence assay. The settings on record: time 75.0 min.

For series [9], the target named is Procathepsin L (Homo sapiens) (UniProt P07711). The experiment in a line: Inhibition of human liver cathepsin L using Z-Phe-Arg-AMC as substrate preincubated for 15 mins followed by substrate addition and measured for 60 mins by fluorescence assay. The following applies: time 75.0 min.
Series [10] deals with Influenza A virus. The experiment in a line: Antiviral activity against Influenza A virus (A/PR 8/34 (H1N1)) clone 1 infected in MDCK cells assessed as reduction in virus-induced cytopathic effect measured after 72 hrs by microscopic analysis. The series is classed as functional, organism-based. The following applies: A/Puerto Rico/8/1934(H1N1).
Series [11] deals with Influenza A virus. As to the kind of experiment: Antiviral activity against Influenza A virus (A/PR 8/34 (H1N1)) clone 1 infected in MDCK cells assessed as reduction in virus-induced cytopathic effect measured after 72 hrs by MTS assay. Type of series: functional, organism-based. The following applies: A/Puerto Rico/8/1934(H1N1).
Series [12] has as its system Influenza A virus. The experiment in a line: Antiviral activity against Influenza A virus (A/PR 8/34 (H1N1)) infected in MDCK cells assessed as reduction in viral RNA synthesis at 20 uM treated at 1 hr post-infection by RT-qPCR analysis. The series is classed as functional, organism-based. The settings on record: A/Puerto Rico/8/1934(H1N1). In general terms: In qPCR the cycle at which signal appears reflects the starting amount.

Series [13] deals with Hemagglutinin (Influenza A virus (A/Puerto Rico/8/1934(H1N1))) (UniProt P03452). As to the kind of experiment: Inhibition of Influenza A virus (A/PR 8/34 (H1N1)) hemagglutinin infected in MDCK cells assessed as reduction in virus binding to cell surface at 200 uM relative to control. The series is classed as cell-based.
A short description of series [14]: Selectivity index, ratio of CC50 for MDCK cells to EC50 for antiviral activity against Influenza A virus (A/Puerto Rico/8/1934(H1N1)) infected in MDCK cells. Type of series: toxicity, cell-based. The following applies: dog, read-out: Ratio CC50/EC50.
The target in series [15] is T1, Trypsin (Homo sapiens). The experiment in a line: Inhibition of human trypsin at 1 uM using Boc-Gln-Ala-Arg-AMC as substrate preincubated for 15 mins followed by substrate addition and measured for 60 mins by fluorescence assay relative to control. The series is classed as protein assay. The settings on record: time 75.0 min.
Series [16] deals with T2, Transmembrane protease serine 11D (Homo sapiens). The experiment in a line: Inhibition of recombinant human N-terminal His-tagged HAT (Ala42 to Ile418 residues) expressed in mouse NSO cells at 1 uM using Boc-Gln-Ala-Arg-AMC as substrate preincubated for 15 mins followed by substrate addition and measured for 60 mins by fluorescence assay relative to control. The settings on record: time 75.0 min.

Series [17] concerns the target Cathepsin B (Homo sapiens) (UniProt P07858). As to the kind of experiment: Inhibition of human liver cathepsin B at 1 uM using Z-Phe-Arg-AMC as substrate preincubated for 15 mins followed by substrate addition and measured for 60 mins by fluorescence assay. The settings on record: time 75.0 min.
Series [18] addresses Procathepsin L (Homo sapiens) (UniProt P07711). As to the kind of experiment: Inhibition of human liver cathepsin L at 1 uM using Z-Phe-Arg-AMC as substrate preincubated for 15 mins followed by substrate addition and measured for 60 mins by fluorescence assay. The settings on record: time 75.0 min.
In series [19] the target is T3, Cathepsin F (Homo sapiens). The experiment in a line: Inhibition of recombinant human cathepsin F expressed in baculovirus infected insect cells at 1 uM using Z-Phe-Arg-AMC as substrate preincubated for 15 mins followed by substrate addition and measured for 60 mins by fluorescence assay relative to control. The settings on record: time 75.0 min.
In series [20] the test system is Influenza A virus. As to the kind of experiment: Antiviral activity against Influenza A virus (A/PR 8/34 (H1N1)) infected in MDCK cells assessed as reduction in viral RNA synthesis at 2 uM treated at 5 hrs post-infection by RT-qPCR analysis. Type of series: functional, organism-based. The settings on record: A/Puerto Rico/8/1934(H1N1).

Procathepsin L (Homo sapiens), sequence (P07711 114-333 limits assumed): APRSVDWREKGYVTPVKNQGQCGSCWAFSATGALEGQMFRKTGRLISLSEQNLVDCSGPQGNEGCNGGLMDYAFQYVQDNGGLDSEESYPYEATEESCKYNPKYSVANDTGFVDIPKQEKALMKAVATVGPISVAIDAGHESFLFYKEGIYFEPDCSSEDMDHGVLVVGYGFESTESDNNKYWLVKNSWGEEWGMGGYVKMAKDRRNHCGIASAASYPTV
Hemagglutinin (Influenza A virus (A/Puerto Rico/8/1934(H1N1))), sequence (P03452 whole entry): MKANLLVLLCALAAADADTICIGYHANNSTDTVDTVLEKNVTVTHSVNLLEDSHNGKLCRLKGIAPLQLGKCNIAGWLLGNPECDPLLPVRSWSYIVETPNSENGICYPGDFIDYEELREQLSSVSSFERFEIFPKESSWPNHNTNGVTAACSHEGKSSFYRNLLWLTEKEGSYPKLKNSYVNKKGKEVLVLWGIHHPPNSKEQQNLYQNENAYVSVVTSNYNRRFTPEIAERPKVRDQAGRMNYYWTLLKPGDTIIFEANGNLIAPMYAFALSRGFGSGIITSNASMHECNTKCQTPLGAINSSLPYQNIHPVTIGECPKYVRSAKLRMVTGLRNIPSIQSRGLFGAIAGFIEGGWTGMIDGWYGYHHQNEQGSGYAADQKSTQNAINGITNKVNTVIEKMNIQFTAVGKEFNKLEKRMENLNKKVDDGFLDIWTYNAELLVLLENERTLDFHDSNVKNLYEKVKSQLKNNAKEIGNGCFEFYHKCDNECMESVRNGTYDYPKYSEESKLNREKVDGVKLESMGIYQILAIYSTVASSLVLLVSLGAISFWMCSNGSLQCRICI

As for `CC(C)(C)OC(=O)N[C@@H](CC(=O)O)C(=O)N(Cc1ccc(F)cc1)C1(C(=O)NCc2ccccc2)CCNCC1`, the EC50 in [1] and in series [2] was above 100 µM throughout. The MCC at 72 h in series [3] was found to be 79 µM. Moreover, the CC50 at 72 h in [4] amounted to 49 µM. For the same molecule, the inhibition result in series [5], in series [6], in series [7], in series [8] and in series [9] was “inactive” in each case.

On to `NC(=O)c1ncn([C@@H]2O[C@H](CO)[C@@H](O)[C@H]2O)n1` [RIBAVIRIN], for which the EC50 in [1] was 22 µM; in [2] it was 31 µM; in series [10] it was 11 µM; in [11], 20 µM. For the same molecule, the MCC at 72 h in [3] came out at 100 µM. The CC50 at 72 h in series [4] was determined as 58 µM.

Take `CCN(CC)CCCC(C)Nc1ccnc2cc(Cl)ccc12` (stereo not drawn): the outcome in series [12] was Active.

Regarding `CCCCCCCCCCCCCCCCCCCCCCOCC(C)(COCCCCCCCCCCCCCCCCCCCCCC)CO[C@]1(C(=O)O)C[C@H](OS(=O)(=O)O)[C@@H](NC(C)=O)[C@H]([C@H](O)[C@@H](COS(=O)(=O)O)OS(=O)(=O)O)O1`, the inhibition in [13] turned out to be 96%.

Regarding `CC(C)(C)OC(=O)N[C@@H](CC(N)=O)C(=O)N(Cc1ccc(F)cc1)C1(C(=O)NCc2ccccc2)CCN(Cc2ccccc2)CC1`, the EC50 was 1.8 µM in [1] and 2.1 µM in series [2]. In addition, the MCC at 72 h in [3] is above 100 µM. The CC50 at 72 h in series [4] is above 100 µM. Besides, the selectivity ratio in series [14] turned out to be 26. Further, the inhibition entry in series [5], in series [6], in [7], in [8] and in [9] was “inactive” in each case.

`CN(C)C(=O)COC(=O)Cc1ccc(OC(=O)c2ccc(NC(=N)N)cc2)cc1`: the inhibition in series [15] and in series [16] was 90% each time.

On to `CC(C)C[C@H](NC(=O)[C@@H]1C[C@H]1C(=O)O)C(=O)NCCCCNC(=N)N`, for which the inhibition result in series [17] and in series [18] was “Active” each time. Besides, the inhibition in [19] was 50%.

For the molecule `CC(C)(C)NC(=O)C1(N(C(=O)[C@H](Cc2ccccc2)NC(=O)OC(C)(C)C)C2CC2)CCN(Cc2ccccc2)CC1`, the EC50 in series [1] came out at 5.8 µM; in [2], 5.3 µM. Also, the MCC at 72 h in series [3] amounted to 84 µM. Also, the CC50 at 72 h in [4] was 58 µM. Besides, in series [14], the selectivity ratio is at most 10.

Take `COC(=O)C[C@H](NC(=O)OC(C)(C)C)C(=O)N(Cc1ccc(Cl)cc1)C1(C(=O)NCc2ccccc2)CCN(Cc2ccccc2)CC1`: the EC50 in series [1] and in [2] was 1.6 µM each time. The MCC at 72 h in [3] amounted to 100 µM. The CC50 at 72 h in [4] was 63 µM. The selectivity ratio in series [14] was at most 10.

With `COC(=O)C[C@H](NC(=O)OC(C)(C)C)C(=O)N(Cc1ccccc1F)C1(C(=O)NCc2ccccc2)CCN(Cc2ccccc2)CC1`, the figures for the EC50 in [1] and in [2] were 9.3 µM and 8.7 µM, respectively. For the same molecule, in series [3], the MCC at 72 h worked out at 20 µM. For the same molecule, the 50% cytotoxic concentration (CC50) at 72 h in series [4] came to 72 µM. In [14], the selectivity ratio is at most 10.

Turning to `COC(=O)C[C@H](NC(=O)OCc1ccccc1)C(=O)N(C1CC1)C1(C(=O)NCc2ccccc2)CCN(Cc2ccccc2)CC1`, the EC50 in series [1] amounted to 2 µM; in series [2], 1.8 µM. Further, the MCC at 72 h in series [3] was determined as 20 µM. Besides, the CC50 at 72 h in series [4] was 8.1 µM. Besides, the selectivity ratio in [14] worked out at 40. Also, the inhibition entry in [5], in series [6], in series [7], in series [8] and in [9] was “inactive” throughout.

With `Cc1onc(-c2ccccc2)c1C(=O)N1CCN(c2ccc([N+](=O)[O-])cc2Cl)CC1`, the result in series [20] was Active.
